Measurements from EP0795549A1, “Bis-aryloxy(amino)-triazinyl-oxy(amino)aryl derivatives, their preparation and their use as antiviral agents” (American Cyanamid Company, priority 1996, dated 1997).
Read-outs that look alike come from different tables or passages of the source.

Tests used:
RSV (A2) = assay: viral yield reduction (growth inhibition) assay, RSV; format: cell-based, Respiratory Syncitial Virus; conditions: for IC50: human respiratory syncytial virus
Description: (§1) The compounds were tested for biological activity using viral yield reduction assays. Host cells (indicated as HF for human foreskin fibroblasts and as vero, the commonly used African green monkey cell line, in Tables 1 and 1a) were plated at 4 x 10^4 cells/well in cell growth medium with 2% fetal bovine serum or 2% calf serum in 96-well plates (0.1 ml/well) and incubated overnight. The compounds were added to individual wells to give final concentrations ranging from 50 to 0.1 µg/ml in two-fold concentration steps. After 1 hour, virus was added, and the incubation was continued for 4 days with RSV or CMV and for 2 days with HSV. At the end of the experiment, the amount of virus growth was quantitated and the yield reduction at various concentrations of compound was calculated. This allows estimation of the concentration of compound giving 50% reduction in virus growth (IC50).

CMV (Ad169) [1] = assay: viral yield reduction (growth inhibition) assay, CMV; format: cell-based, Cytomegalovirus; conditions: for Antiviral IC50 µg/ml CMV /HF: Table 1a; for IC50 µG/mL IN GROWTH […]/ HF: HF host cells
Description: as §1

HSV1 (Patton) = assay: viral yield reduction (growth inhibition) assay, HSV; format: cell-based, Herpes Simplex Virus; conditions: for Antiviral IC50 µg/ml HSV Vero: Table 1a, format not given; for IC50 µG/mL IN GROWTH […]/ HF: HF host cells
Description: as §1

CMV (Ad169) [2] = assay: viral plaque reduction assay, CMV; format: cell-based, Cytomegalovirus; conditions: CMV (Ad169), HF host cells
RSV = assay: viral plaque reduction assay, RSV; format: cell-based, Respiratory Syncitial Virus; conditions: RSV (A2), vero host cells
RSV A2 = format: in vivo, cotton rats; conditions: rat, in vivo
[3] = Table 1a, HF, yield reduction or plaque format not specified
[4] = HF host cells, read-out: IC50 µG/mL IN GROWTH […]/ HF
[5] = vero host cells, read-out: IC50 µG/mL IN GROWTH […]/ VERO

With “4',4-Bis-{4,6-bis-[3-(bis-carbamoylmethyl-1-sulfamoyl)-phenylamino]-[1,3,5]triazin-2-ylamino}-biphenyl-2,2'-dicarboxylic acid, disodium salt [Example 44]” the “Antiviral IC50 µg/ml RSV/ HF” value (RSV (A2); [3]) was 0.6 µg/mL, the “Antiviral IC50 µg/ml CMV /HF” value (CMV (Ad169) [1]; HF, format not given) was 1.5 µg/mL and the “Antiviral IC50 µg/ml HSV Vero” value (HSV1 (Patton); HSV1 (Patton)) was 15 µg/mL.
In the case of “4,4'-Bis[4,6-di[3-aminophenyl-N,N-bis(2-carbamoyl-ethyl)sulfonylimino]-1,3,5-triazin-2-ylamino]-bibenzyl-2,2'-disulfonic acid, disodium salt [Example 11]”, the “IC50 µG/mL IN GROWTH […]/ HF” value (RSV (A2); HF host cells) is reported as 10 µg/mL, the “IC50 µG/mL IN GROWTH […]/ VERO” value (RSV (A2); vero host cells) is reported as 10 µg/mL and the “IC50 µG/mL IN GROWTH […]/ HF” value (CMV (Ad169) [1]) is reported as over 50 µg/mL.
With “4,4'-Bis[4,6-di[3-aminophenyl-N,N-bis(2-carbamoyl-ethyl)sulfonylimino]-1,3,5-triazin-2-yloxy]-biphenyl-2,2'-disulfonic acid, disodium salt [Example 19]” the “IC50 µG/mL IN GROWTH […]/ HF” value (RSV (A2); HF host cells) was 2 µg/mL, the “IC50 µG/mL IN GROWTH […]/ VERO” value (RSV (A2); vero host cells) was 3 µg/mL and the “IC50 µG/mL IN GROWTH […]/ HF” value (CMV (Ad169) [1]) was 12 µg/mL. For the same compound, the “IC50 µG/mL IN GROWTH […]/ HF” value (HSV1 (Patton); HSV1 (Patton)) was 30 µg/mL and the “IC50 µG/mL IN GROWTH […]/ VERO” value (HSV1 (Patton); HSV1 (Patton), vero host cells) was about 50 µg/mL.
For “4,4'-Bis[4,6-di[3-aminophenyl-N,N-bis(2-hydroxyethyl)sulfonyliminol-1,3,5-triazin-2-ylamino]-biphenyl-2,2'-disulfonic acid, disodium salt [Example 22]”, the “IC50 µG/mL IN GROWTH […]/ HF” value (RSV (A2); HF host cells) was 0.15 µg/mL, the “IC50 µG/mL IN GROWTH […]/ VERO” value (RSV (A2); vero host cells) was 0.25 µg/mL and the “IC50 µG/mL IN GROWTH […]/ HF” value (CMV (Ad169) [1]) was 4 µg/mL. The “IC50µG/mL IN PLAQUE ASSAY CMV/ HF” value (CMV (Ad169) [2]) was 2 µg/mL.
“4,4'-Bis[4,6-di[3-aminophenyl-N,N-bis(3-hydroxypropyl)-sulfonylimino]-1,3,5-triazin-2-ylamino]-biphenyl-2,2'-disulfonic acid, disodium salt [Example 59]” was tested, and the “Antiviral IC50 µg/ml RSV/ HF” value (RSV (A2); [3]) was 0.5 µg/mL, the “Antiviral IC50 µg/ml CMV /HF” value (CMV (Ad169) [1]; HF, format not given) was 4 µg/mL and the “Antiviral IC50 µg/ml HSV Vero” value (HSV1 (Patton); HSV1 (Patton)) was 20 µg/mL.
In the case of “4,4'-Bis[4,6-di[4-amino-N'-[3-aminophenyl-N,N-bis(2-hydroxyethyl)sulfonylimino]-benzensulfonamide]-1,3,5-triazin-2-ylamino]-stilbene-2,2'-disulfonic acid, disodium salt [Example 25]”, the “IC50 µG/mL IN GROWTH […]/ VERO” value (RSV (A2); vero host cells) is reported as 30 µg/mL.
For “4,4'-Bis[4,6-di[4-aminophenyl-N,N-bis(2-carbamoyl-ethyl)sulfonylimino]-1,3,5-triazin-2-ylamino]-biphenyl-2,2'-disulfonic acid, disodium salt [Example 13]”, the “IC50 µG/mL IN GROWTH […]/ HF” value (RSV (A2); HF host cells) was 8 µg/mL, the “IC50 µG/mL IN GROWTH […]/ VERO” value (RSV (A2); vero host cells) was 8 µg/mL and the “IC50 µG/mL IN GROWTH […]/ HF” value (CMV (Ad169) [1]) was 20 µg/mL. For the same compound, the “IC50 µG/mL IN GROWTH […]/ HF” value (HSV1 (Patton); HSV1 (Patton)) was 10 µg/mL and the “IC50 µG/mL IN GROWTH […]/ VERO” value (HSV1 (Patton); HSV1 (Patton), vero host cells) was 30 µg/mL.
With “4,4'-Bis[4,6-di[4-aminophenyl-N,N-bis(2-carbamoyl-ethyl)sulfonylimino]-1,3,5-triazin-2-ylamino]-stilbene-2,2'-disulfonic acid, disodium salt [Example 12]” the “IC50µG/mL IN PLAQUE ASSAY RSV/ VERO” value (RSV) was 8 µg/mL and the “IC50µG/mL IN PLAQUE ASSAY CMV/ HF” value (CMV (Ad169) [2]) was 10 µg/mL.
For “4,4'-Bis[4-chloro-6-[3-aminophenyl-N,N-bis(2-carbamoylethyl)sulfonylimino]-1,3,5-triazin-2-ylamino]-stilbene-2,2'-disulphonic acid, disodium salt [Example 8]”, the “IC50 µG/mL IN GROWTH […]/ HF” value (RSV (A2); HF host cells) was over 50 µg/mL, the “IC50 µG/mL IN GROWTH […]/ VERO” value (RSV (A2); vero host cells) was over 50 µg/mL and the “IC50 µG/mL IN GROWTH […]/ HF” value (CMV (Ad169) [1]) was over 50 µg/mL.
With “4,4'-Bis[4-chloro-6-di[4-amino-N'-[3-aminophenyl-N,N-bis(2-carbamoylethyl)sulfonylimino]-benzamide]-1,3,5-triazin-2-ylamino]-stilbene-2,2' -disulfonic acid, disodium salt [Example 24]” the “IC50 µG/mL IN GROWTH […]/ VERO” value (RSV (A2); vero host cells) was 50 µg/mL.
For “4-[4,6-Di[3-aminophenyl-N,N-bis(2-carbamoylethyl)sulfonylimino]-1,3,5-triazin-2-ylamino]-4'-[4-[3-aminophenyl-N,N-bis(2-carbamoylethyl)sulfonylimino]-6-[3 -aminophenyl-N,N bis(3-propionic acid)]-1,3,5-triazin-2-ylamino]-stilbene-2,2'-disulphonic acid, disodium salt [Example 10]”, the “IC50 µG/mL IN GROWTH […]/ HF” value (RSV (A2); HF host cells) was under 3 µg/mL and the “IC50 µG/mL IN GROWTH […]/ VERO” value (RSV (A2); vero host cells) was 0.7 µg/mL.
For “4-[4,6-Di[3-aminophenyl-N,N-bis(2-carbamoylethyl)sulfonylimino]-1,3,5-triazin-2-ylamino]-4'-[4-[3-aminophenyl-N,N-bis(2-carbamoylethyl)sulfonylimino]-6-[3 -aminophenyl-N-(2-carbamoylethyl)-N'-(3-propionic acid)]-1,3,5-triazin-2-ylamino]stilbene-2,2'-disulphonic acid, disodium salt [Example 9]”, the “IC50 µG/mL IN GROWTH […]/ HF” value (RSV (A2); HF host cells) was under 3 µg/mL, the “IC50 µG/mL IN GROWTH […]/ VERO” value (RSV (A2); vero host cells) was 0.4 µg/mL and the “IC50µG/mL IN PLAQUE ASSAY RSV/ VERO” value (RSV) was 0.3 µg/mL. For the same compound, the “IC50µG/mL IN PLAQUE ASSAY CMV/ HF” value (CMV (Ad169) [2]) was 10 µg/mL.
For “4-[4,6-Di[3-aminophenyl-N,N-bis(2-carbamoylethyl)sulfonylimino]-1,3,5-triazin-2-ylamino]-4'-[4-chloro-6-[3-aminophenyl-N,N-bis(2-carbamoylethyl)sulfonylimino] -1,3,5-triazin-2-ylamino]-stilbene-2,2'-disulphonic acid, disodium salt [Example 7]”, the “IC50 µG/mL IN GROWTH […]/ HF” value (RSV (A2); HF host cells) was 0.7 µg/mL, the “IC50 µG/mL IN GROWTH […]/ VERO” value (RSV (A2); vero host cells) was 1 µg/mL and the “IC50µG/mL IN PLAQUE ASSAY RSV/ VERO” value (RSV) was 0.8 µg/mL. For the same compound, the “IC50µG/mL IN PLAQUE ASSAY CMV/ HF” value (CMV (Ad169) [2]) was 10 µg/mL.
For “5,5'-Dimethyl-4,4'-bis[4,6-di[3-aminophenyl-N,N-bis(2-carbamoyl-ethyl)sulfonylimino]-1,3,5-triazin-2-ylamino]-biphenyl-2,2'-disulfonic acid, disodium salt [Example 20]”, the “IC50 µG/mL IN GROWTH […]/ HF” value (RSV (A2); HF host cells) was 0.5 µg/mL and the “IC50 µG/mL IN GROWTH […]/ VERO” value (HSV1 (Patton); HSV1 (Patton), vero host cells) was 40 µg/mL.
“9,9-Dioxo-2,7-Bis[4,6-di[3-aminophenyl-N,N-bis(2-carbamoylethyl)sulfonylimino]-1,3,5-triazin-2-ylamino]-dibenzothiophen-3,6-disulfonic acid, disodium salt [Example 23]” was tested, and the “IC50µG/mL IN PLAQUE ASSAY RSV/ VERO” value (RSV) was 8 µg/mL and the “IC50µG/mL IN PLAQUE ASSAY CMV/ HF” value (CMV (Ad169) [2]) was 20 µg/mL.
With `NC(=O)CCN(CCC(N)=O)S(=O)(=O)c1cccc(Nc2nc(Cl)nc(Nc3cccc(S(=O)(=O)N(CCC(N)=O)CCC(N)=O)c3)n2)c1` [Example 6, 2-Chloro-4,6-di[3-aminophenyl-N,N-bis(2-carbamoyl-ethyl)sulfonylimino]-1,3,5-triazine] the IC50 (RSV (A2); [4]) was over 50 µg/mL, the IC50 (RSV (A2); [5]) was over 50 µg/mL and the IC50 (CMV (Ad169) [1]; Human betaherpesvirus 5, HF host cells, read-out: IC50 µG/mL IN GROWTH […]/ HF) was over 50 µg/mL.
Compound `O=S(=O)(O)c1cc(O)ccc1-c1ccc(O)cc1S(=O)(=O)O` [Example 17, 4,4'-Dihydroxybiphenyl-2,2'-disulfonic acid] has an IC50 (RSV (A2); [4]) of over 50 µg/mL, an IC50 (RSV (A2); [5]) of over 50 µg/mL and an IC50 (HSV1 (Patton); Human alphaherpesvirus 1, HSV1 (Patton), vero host cells, read-out: IC50 µG/mL IN GROWTH INHIBITION HSV/ VERO) of over 50 µg/mL.
Compound `CC(O)CN(CC(C)O)S(=O)(=O)c1cccc(Nc2nc(Nc3cccc(S(=O)(=O)N(CC(C)O)CC(C)O)c3)nc(Nc3ccc(-c4ccc(Nc5nc(Nc6cccc(S(=O)(=O)N(CC(C)O)CC(C)O)c6)nc(Nc6cccc(S(=O)(=O)N(CC(C)O)CC(C)O)c6)n5)cc4C(=O)[O-])c(C(=O)[O-])c3)n2)c1.[Na+].[Na+]` (stereo not shown) [Example 41, 4,4'-Bis-(4,6-bis-{3-[bis-(2-hydroxy-propyl)-sulfamoyl]-phenylamino}-[1,3,5]triazin-2-ylamino)biphenyl-2,2'-dicarboxylic acid, disodium salt] has an IC50 (RSV (A2); Table 1a, HF, yield reduction or plaque format not specified, read-out: Antiviral IC50 µg/ml RSV/ HF) of 2 µg/mL, an IC50 (CMV (Ad169) [1]; Human betaherpesvirus 5, Table 1a, HF, format not given, read-out: Antiviral IC50 µg/ml CMV /HF) of 8 µg/mL and an IC50 (HSV1 (Patton); Human alphaherpesvirus 1, Vero, read-out: Antiviral IC50 µg/ml HSV Vero) of over 50 µg/mL.
`NC(=O)c1ncn([C@@H]2O[C@H](CO)[C@@H](O)[C@H]2O)n1` [Ribavirin, ribavirin, reference compound] was tested, and the “Fold red. log10” value (RSV A2) was 0.8 log10 and the “Mean titer log10/g lung” value (RSV A2) was 3.3 log10/g lung.
